# Patent publication US20050009889A1 (priority 2002, published 2005)
# Marks after values point to notes of the source that are not given here.
# Tests used:
# Type in all cases: in vivo
# Phytophthora infestans [1] = settings: tomato seedlings sprayed to run-off, inoculated next day; concentration not given
# Puccinia recondita = assay: Test B: preventive control of wheat leaf rust on wheat seedlings; settings: wheat seedlings sprayed to run-off, inoculated next day; concentration not given
# Source text: (§1) General protocol for preparing test suspensions: Test compounds are first dissolved in acetone in an amount equal to 3% of the final volume and then suspended at the desired concentration (in ppm) in acetone and purified water (50/50 mix) containing 250 ppm of the surfactant Trem® 014 (polyhydric alcohol esters). The resulting test suspensions are then used in the following tests. Spraying a 200 ppm test suspension to the point of run-off on the test plants is the equivalent of a rate of 500 g/ha.
# (§2) The test suspension was sprayed to the point of run-off on wheat seedlings. The following day the seedlings were inoculated with a spore suspension of Puccinia recondita (the causal agent of wheat leaf rust) and incubated in a saturated atmosphere at 20° C. for 24 h, and then moved to a growth chamber at 20° C. for 6 days, after which disease ratings were made.
# Pyricularia oryzae = settings: rice seedlings sprayed to run-off, inoculated next day; concentration not given
# Plasmopara viticola [2] = assay: Test G: curative control of grape downy mildew on grape seedlings; settings: grape seedlings, curative; 100 ppm (footnote *)
# Source text: as §1
# Grape seedlings are inoculated with a spore suspension of Plasmopara viticola (the casual agent of grape downy mildew) and incubated in a saturated atmosphere at 20° C. for 24 h. The next day, test suspension is sprayed to the point of run-off and the treated plants are moved to a growth chamber at 20° C. for 6 days, and then incubated in a saturated atmosphere at 20° C. for 24 h, after which disease ratings are made.
# grape downy mildew = assay: Curative utility, in addition to the Tests of Table A; settings: especially for grape downy mildew
# [3] = system: Erysiphe graminis f. sp. tritici; assay: Test A: preventive control of wheat powdery mildew on wheat seedlings; settings: wheat seedlings sprayed to run-off, inoculated next day, rated after 7 days; concentration not given
# Source text: as §1
# The test suspension was sprayed to the point of run-off on wheat seedlings. The following day the seedlings were inoculated with a spore dust of Erysiphe graminis f. sp. tritici, (the causal agent of wheat powdery mildew) and incubated in a growth chamber at 20° C. for 7 days, after which disease ratings were made.
# Phytophthora infestans [4] = settings: curative; 100 ppm on potato seedlings
# Plasmopara viticola [5] = assay: Test E: preventive control of grape downy mildew on grape seedlings; settings: grape seedlings sprayed to run-off, inoculated next day; concentration not given
# Source text: as §1
# as §2, with “grape” for “wheat”, “Plasmopara viticola” for “Puccinia recondita”, “grape downy mildew)” for “wheat leaf rust)”, “h,” for “h, and then”, “days, and then incubated in a saturated atmosphere at 20° C. for 24 h,” for “days,”
Molecule,"Test D disease control rating (100 = 100% disease control, 0 = no control) (Phytophthora infestans [1])","Test B disease control rating (100 = 100% disease control, 0 = no control) (Puccinia recondita)","Test C disease control rating (100 = 100% disease control, 0 = no control) (Pyricularia oryzae)","Test G disease control rating (100 = 100% disease control, 0 = no control) (Plasmopara viticola [2])",curative utility (grape downy mildew),"Test A disease control rating (100 = 100% disease control, 0 = no control) [3]","Test F disease control rating (100 = 100% disease control, 0 = no control) (Phytophthora infestans [4])","Test E disease control rating (100 = 100% disease control, 0 = no control) (Plasmopara viticola [5])"
Cc1cnc(Cl)c(C(=O)NCc2ncc(C(F)(F)F)cc2Cl)c1Cl [Compound 20],100%,54%,0%,100* %,significant curative utility,0%,24# %,100%
"2,4-Dichloro-N-[1-[3-chloro-5-(trifluoromethyl)-2-pyridinyl]ethyl]-3-pyridinecarboxamide [Compound 21]",100%,74%,0%,100* %,significant curative utility,0%,100# %,100%
